Data from PubChem BioAssay AID1963432 (Molecular Pharmacology Branch, DTP, NCI, 2024).

Test system: SYO-1 complex spheroid growth, percent test/control
Test: Anticancer human tumor SYO-1 cell line growth inhibition [Asc];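 note: compound exposure lasted 7 days after spheroids grew 3 days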;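 for viability, T/C: 100% = DMSO vehicle control viability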
Details: for IC50: curve of first compound; for viability, T/C: stronger effect = lower value
Procedure, shortened: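 Concentration series start at each agent's clinical Cmax, or at 10 microM when none is established, and drop in half-log steps; agents are applied alone or together to complex spheroids built with HUVEC and hMSC.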

[1] = second compound 0.0316 µM, first compound 0.0316 µM
[2] = second compound 0.0316 µM, first compound 0.1 µM
[3] = second compound 0.0316 µM, first compound 0.316 µM
[4] = second compound 0.0316 µM, first compound 1 µM
[5] = second compound 0.1 µM, first compound 0.0316 µM
[6] = second compound 0.1 µM, first compound 0.1 µM
[7] = second compound 0.1 µM, first compound 0.316 µM
[8] = second compound 0.1 µM, first compound 1 µM
[9] = second compound 0.316 µM, first compound 0.0316 µM
[10] = second compound 0.316 µM, first compound 0.1 µM
[11] = second compound 0.316 µM, first compound 0.316 µM
[12] = second compound 0.316 µM, first compound 1 µM
[13] = second compound 1 µM, first compound 0.0316 µM
[14] = second compound 1 µM, first compound 0.1 µM
[15] = second compound 1 µM, first compound 0.316 µM
[16] = second compound 1 µM, first compound 1 µM
[17] = second compound 3.16 µM, first compound 0.0316 µM
[18] = second compound 3.16 µM, first compound 0.1 µM
[19] = second compound 3.16 µM, first compound 0.316 µM
[20] = second compound 3.16 µM, first compound 1 µM
[21] = second compound 10 µM, first compound 0.0316 µM
[22] = second compound 10 µM, first compound 0.1 µM
[23] = second compound 10 µM, first compound 0.316 µM
[24] = second compound 10 µM, first compound 1 µM
[25] = second compound 0.0316 µM, first compound 0.00316 µM
[26] = second compound 0.0316 µM, first compound 0.01 µM
[27] = second compound 0.1 µM, first compound 0.00316 µM
[28] = second compound 0.1 µM, first compound 0.01 µM
[29] = second compound 0.316 µM, first compound 0.00316 µM
[30] = second compound 0.316 µM, first compound 0.01 µM
[31] = second compound 1 µM, first compound 0.00316 µM
[32] = second compound 1 µM, first compound 0.01 µM
[33] = second compound 3.16 µM, first compound 0.00316 µM
[34] = second compound 3.16 µM, first compound 0.01 µM
[35] = second compound 10 µM, first compound 0.00316 µM
[36] = second compound 10 µM, first compound 0.01 µM

C=CC(=O)N1CCN(c2nc(=O)n(-c3c(C)ccnc3C(C)C)c3nc(-c4c(O)cccc4F)c(F)cc23)C(C)C1 (stereo unspecified) + Cc1c(S(C)(=O)=O)c(-c2cc(F)cc(N3CCN(c4ccc(NS(=O)(=O)c5ccc(NC(CCN6CCC(C(=O)OCCCP(=O)(O)O)CC6)CSc6ccccc6)c(S(=O)(=O)C(F)(F)F)c5)cc4)CC3)c2)c(-c2ccc(Cl)cc2)n1C(C)C showed an IC50 (second compound 0.0316 µM) of over 10000 nM, an IC50 (second compound 0.1 µM) of over 10000 nM and an IC50 (second compound 0.316 µM) of over 10000 nM. For the same compound, the IC50 (second compound 1 µM) was over 10000 nM, the IC50 (second compound 3.16 µM) was over 10000 nM and the IC50 (second compound 10 µM) was over 10000 nM. It also gave a viability, T/C [1] of 105%, a viability, T/C [2] of 100% and a viability, T/C [3] of 100%. For the same compound, the viability, T/C [4] was 106%, the viability, T/C (second compound 0.0316 µM, first compound 3.16 µM) was 103% and the viability, T/C (second compound 0.0316 µM, first compound 10 µM) was 90.7%. It also gave a viability, T/C [5] of 114%, a viability, T/C [6] of 103% and a viability, T/C [7] of 93.4%. The viability, T/C [8] was 99.9%, the viability, T/C (second compound 0.1 µM, first compound 3.16 µM) was 99.7% and the viability, T/C (second compound 0.1 µM, first compound 10 µM) was 87%. The viability, T/C [9] was 98.3%, the viability, T/C [10] was 96.9% and the viability, T/C [11] was 101%. The viability, T/C [12] was 102%, the viability, T/C (second compound 0.316 µM, first compound 3.16 µM) was 88.3% and the viability, T/C (second compound 0.316 µM, first compound 10 µM) was 83.4%. The viability, T/C [13] was 94.4%, the viability, T/C [14] was 94% and the viability, T/C [15] was 99.2%. It also gave a viability, T/C [16] of 100%, a viability, T/C (second compound 1 µM, first compound 3.16 µM) of 90.7% and a viability, T/C (second compound 1 µM, first compound 10 µM) of 83.6%. It also gave a viability, T/C [17] of 91.5%, a viability, T/C [18] of 86.5% and a viability, T/C [19] of 93.2%. It also gave a viability, T/C [20] of 96.5%, a viability, T/C (second compound 3.16 µM, first compound 3.16 µM) of 87.9% and a viability, T/C (second compound 3.16 µM, first compound 10 µM) of 81%. It also gave a viability, T/C [21] of 90%, a viability, T/C [22] of 81.4% and a viability, T/C [23] of 83.9%. The viability, T/C [24] was 79.5%, the viability, T/C (second compound 10 µM, first compound 3.16 µM) was 89.9% and the viability, T/C (second compound 10 µM, first compound 10 µM) was 76.1%.

COc1c(OCCCN2CCOCC2)ccc2c3n(c(=NC(=O)c4cnc(N)nc4)nc12)CCN3 + Cc1c(S(C)(=O)=O)c(-c2cc(F)cc(N3CCN(c4ccc(NS(=O)(=O)c5ccc(NC(CCN6CCC(C(=O)OCCCP(=O)(O)O)CC6)CSc6ccccc6)c(S(=O)(=O)C(F)(F)F)c5)cc4)CC3)c2)c(-c2ccc(Cl)cc2)n1C(C)C showed an IC50 (second compound 0.0316 µM) of 652 nM, an IC50 (second compound 0.1 µM) of 596 nM and an IC50 (second compound 0.316 µM) of 509 nM. The IC50 (second compound 1 µM) was 452 nM, the IC50 (second compound 3.16 µM) was 300 nM and the IC50 (second compound 10 µM) was 194 nM. It also gave a viability, T/C [25] of 104%, a viability, T/C [26] of 93.8% and a viability, T/C [1] of 93.5%. The viability, T/C [2] was 83.1%, the viability, T/C [3] was 74.6% and the viability, T/C [4] was 36.4%. The viability, T/C [27] was 99.2%, the viability, T/C [28] was 97% and the viability, T/C [5] was 91.8%. It also gave a viability, T/C [6] of 80.3%, a viability, T/C [7] of 69.5% and a viability, T/C [8] of 35.6%. For the same compound, the viability, T/C [29] was 90.7%, the viability, T/C [30] was 98.3% and the viability, T/C [9] was 94.1%. It also gave a viability, T/C [10] of 82.4%, a viability, T/C [11] of 65.8% and a viability, T/C [12] of 28.5%. For the same compound, the viability, T/C [31] was 91.5%, the viability, T/C [32] was 100% and the viability, T/C [13] was 94.7%. The viability, T/C [14] was 87.5%, the viability, T/C [15] was 63.4% and the viability, T/C [16] was 20.5%. The viability, T/C [33] was 92.5%, the viability, T/C [34] was 91.1% and the viability, T/C [17] was 92.3%. It also gave a viability, T/C [18] of 78.1%, a viability, T/C [19] of 49% and a viability, T/C [20] of 11.6%. The viability, T/C [35] was 83.2%, the viability, T/C [36] was 88.7% and the viability, T/C [21] was 72.3%. For the same compound, the viability, T/C [22] was 62%, the viability, T/C [23] was 41.7% and the viability, T/C [24] was 6.85%.

NC1CCC(NC2CC2c2ccccc2)CC1 (stereo unspecified) + Cc1c(S(C)(=O)=O)c(-c2cc(F)cc(N3CCN(c4ccc(NS(=O)(=O)c5ccc(NC(CCN6CCC(C(=O)OCCCP(=O)(O)O)CC6)CSc6ccccc6)c(S(=O)(=O)C(F)(F)F)c5)cc4)CC3)c2)c(-c2ccc(Cl)cc2)n1C(C)C showed an IC50 (second compound 0.0316 µM) of over 100 nM, an IC50 (second compound 0.1 µM) of over 100 nM and an IC50 (second compound 0.316 µM) of over 100 nM. For the same compound, the IC50 (second compound 1 µM) was over 100 nM, the IC50 (second compound 3.16 µM) was over 100 nM and the IC50 (second compound 10 µM) was over 100 nM. It also gave a viability, T/C (second compound 0.0316 µM, first compound 0.000316 µM) of 100%, a viability, T/C (second compound 0.0316 µM, first compound 0.001 µM) of 92.1% and a viability, T/C [25] of 90.5%. The viability, T/C [26] was 84.8%, the viability, T/C [1] was 86.9% and the viability, T/C [2] was 89%. It also gave a viability, T/C (second compound 0.1 µM, first compound 0.000316 µM) of 96.5%, a viability, T/C (second compound 0.1 µM, first compound 0.001 µM) of 92.7% and a viability, T/C [27] of 86.3%. The viability, T/C [28] was 87.1%, the viability, T/C [5] was 91.8% and the viability, T/C [6] was 86.5%. The viability, T/C (second compound 0.316 µM, first compound 0.000316 µM) was 105%, the viability, T/C (second compound 0.316 µM, first compound 0.001 µM) was 91.8% and the viability, T/C [29] was 87.9%. It also gave a viability, T/C [30] of 91.7%, a viability, T/C [9] of 89.1% and a viability, T/C [10] of 86.9%. The viability, T/C (second compound 1 µM, first compound 0.000316 µM) was 92.2%, the viability, T/C (second compound 1 µM, first compound 0.001 µM) was 88.5% and the viability, T/C [31] was 96.9%. It also gave a viability, T/C [32] of 92.3%, a viability, T/C [13] of 90.6% and a viability, T/C [14] of 85.8%. The viability, T/C (second compound 3.16 µM, first compound 0.000316 µM) was 91.3%, the viability, T/C (second compound 3.16 µM, first compound 0.001 µM) was 85.3% and the viability, T/C [33] was 88.7%. It also gave a viability, T/C [34] of 85.8%, a viability, T/C [17] of 79.8% and a viability, T/C [18] of 87.2%. It also gave a viability, T/C (second compound 10 µM, first compound 0.000316 µM) of 85.7%, a viability, T/C (second compound 10 µM, first compound 0.001 µM) of 85.4% and a viability, T/C [35] of 80.5%. It also gave a viability, T/C [36] of 82.4%, a viability, T/C [21] of 83.3% and a viability, T/C [22] of 79.7%.
